Key:
HT-29 colon cancer cells = experiment: Antiproliferative activity, growth inhibition assay (MTS/WST); assay type: cell-based; conditions: Homo sapiens, 72 hour, read-out: GI50 (micromolar) HT-29
Experimental: Antiproliferative Activity Against Cancer Cell Lines By Novel Compounds
The novel compounds of the present invention were tested for their ability to inhibit growth of various cancer cell lines using in vitro growth inhibition assays described below.
Cells were seeded in 96-well culture plates (200 microliters/well at different seeding concentrations depending on cell type) and incubated overnight at 37 degrees Celsius in 5% CO2. After adding compound dilutions to the cells (DMSO concentration kept below 0.5%), the cells were incubated at 37 degrees Celsius in 5% CO2 for 72 hours. The effects on proliferation were determined by addition of MTS reagent (Promega) according to the manufacturer's instruction, followed by incubation for 2 hours at 37 degrees Celsius in 5% CO2, and finally recording the absorbance at 490 nm using an ELISA plate reader.
Similar to MTS assay except that the developer is the CCK-8 reagent (Dojindo) and the plate reader is set to 450 nm absorbance.
GI50 values against HT-29 colon cancer cells for specific representative compounds can be found in Table 3.

[1] = tested on: klf2 promoter-luciferase construct in A204 cells; experiment: klf2 reporter gene induction (p21 versus klf2 selectivity); assay type: cell-based; conditions: for p21/klf2 (RP3): relative selectivity at 3 micromolar compared with SNDX-275 (p21/klf2 ratio defined as 1.0); for p21/klf2 (RP10): relative selectivity at 10 micromolar compared with SNDX-275 (p21/klf2 ratio defined as 1.0)
Experimental: klf2 Reporter Gene Induction By Novel Compounds
The novel compounds of the present invention were tested for their ability to induce klf2 gene expression using a reporter gene assay involving A204 cells transfected with a klf2 promoter-luciferase construct. The klf2 promoter contained the MEF2 binding site for HDAC3/class IIa HDAC complex. Briefly, the day before transfection, A204 cells were seeded at 11,000 cells/well in a 96-well culture plate and incubated at 37 degrees Celsius in 5% CO2 overnight. For transfection, the medium was removed and replaced with 100 microliters/well transfection media previously prepared as follows: 5 microliters serum-free DMEM, 0.15 microliters Fugene 6 reagent, 40 ng klf2-luc, 10 ng GFP were mixed gently and incubated at room temperature for 30 minutes; then 98 microliters DMEM (with 10% FBS, 1% penicillin and streptomycin) was added to the DNA:Fugene 6 reagent complex and mixed gently. After incubating the cells for 24 hours at 37 degrees Celsius in 5% CO2, fresh media and test compounds were added to the wells and the cells further incubated for 15 hours at 37 degrees Celsius in 5% CO2. Finally, 10 ng/ml TNF-a was added and the cells further incubated for 4 hours. Cells were lysed by adding 80 microliters/well of a cell culture lysis reagent (Promega). 50 microliters of each lysate was taken for GFP detection using an excitation wavelength of 486 nm and detection at 527 nm. 100 microliters Luciferase assay reagent (Promega) was then added to every 20 microliters cell lysate for luminometer detection.

[2] = tested on: p21 promoter-luciferase construct in HeLa cells; experiment: p21 reporter gene induction; assay type: cell-based; conditions: relative induction potency compared with SNDX-275 at 3 micromolar
Experimental: p21 Reporter Gene Induction By Novel Compounds
The novel compounds of the present invention were tested for their ability to induce p21 gene expression using a reporter gene assay involving HeLa cells transfected with a p21 promoter-luciferase construct. The p21 promoter contained the Sp1/Sp3 binding site for HDAC but not the upstream p53 binding site. Briefly, the day before transfection, HeLa cells were seeded at 11,000 cells/well in a 96-well culture plate and incubated at 37 degrees Celsius in 5% CO2 overnight. For transfection, the medium was removed and replaced with 100 microliters/well transfection media previously prepared as follows: 5 microliters serum-free DMEM, 0.15 microliters Fugene 6 reagent, 40 ng p21-luc, 10 ng GFP were mixed gently and incubated at room temperature for 30 minutes; then 98 microliters DMEM (with 10% FBS, 1% penicillin and streptomycin) was added to the DNA:Fugene 6 reagent complex and mixed gently. After incubating the cells for 24 hours at 37 degrees Celsius in 5% CO2, fresh media and test compounds were added to the wells and the cells further incubated for 15 hours at 37 degrees Celsius in 5% CO2. Cells were lysed by adding 80 microliters/well of a cell culture lysis reagent (Promega). 50 microliters of each lysate was taken for GFP detection using an excitation wavelength of 486 nm and detection at 527 nm. 100 microliters Luciferase assay reagent (Promega) was then added to every 20 microliters cell lysate for luminometer detection. […] Induction activity for specific representative compounds can be found in Table 3.

[3] = tested on: histone deacetylase (HeLa nuclear extract); experiment: HeLa extract HDAC fluorometric assay; assay type: biochemical; conditions: relative inhibitory potency compared with SNDX-275 at 30 micromolar
Experimental: HDAC Inhibition by Novel Compounds: HeLa Extract HDAC Fluorometric Assay
Novel compounds were tested for their ability to inhibit histone deacetylase using an in vitro deacetylation assay. The enzyme source for this assay was HeLa nuclear extract. The substrate consisted of a commercial product containing an acetylated lysine side chain (both HeLa extract and substrate are available commercially from BIOMOL Research Laboratories, Inc., Plymouth Meeting, Pa.). After deacetylation of the substrate by incubation with HeLa nuclear extract, subsequent exposure to a developing reagent produces a fluorophore that is directly proportional to the level of deacetylation. Using the substrate concentration at the Km for the HeLa nuclear extract, the deacetylation assay was performed in the presence of novel compounds at 30 micromolar and the percent enzyme inhibition relative to a known reference HDAC inhibitor (SNDX-275) was determined. […] Inhibitory activity for specific representative compounds can be found in Table 3.

SMILES	GI50 (HT-29 colon cancer cells) [µM]	p21/klf2 (RP3) [1]	p21/klf2 (RP10) [1]	p21 (RP3) [2] [%]	HD (RP30) [3] [%]
CN(C)[C@@H]1CCN(C(C(=O)Nc2ccc(C(F)(F)F)cc2)c2ccc(/C=C/C(=O)Nc3ccccc3N)cc2)C1 (stereo partly drawn) [Example 7-6, (E)-N-(2-Amino-phenyl)-3-{4-[((R)-3-dimethylamino-pyrrolidin-1-yl)-(4-trifluoromethyl-phenylcarbamoyl)-methyl]-phenyl}-acrylamide]	3	2.3	2.9	216	175
CCN(CC)C1CCN(C(C(=O)Nc2ccc(C(F)(F)F)cc2)c2ccc(/C=C/C(=O)Nc3ccccc3N)cc2)C1 (stereo not shown) [Example 7-7, (E)-N-(2-Amino-phenyl)-3-{4-[(3-diethylamino-pyrrolidin-1-yl)-(4-trifluoromethyl-phenylcarbamoyl)-methyl]-phenyl}-acrylamide]	2.3	2.1	2.0	230	183
CCN(CC)C1CCN(C(C(=O)Nc2ccc(C#N)cc2)c2ccc(/C=C/C(=O)Nc3ccccc3N)cc2)C1 (stereo not shown) [Example 7-16, (E)-N-(2-Amino-phenyl)-3-{4-[(4-cyano-phenylcarbamoyl)-(3-diethylamino-pyrrolidin-1-yl)-methyl]-phenyl}-acrylamide]	0.2	0.7	0.9	157	159
CCN(CC)C1CCN(C(C(=O)Nc2ccc(F)cc2)c2ccc(/C=C/C(=O)Nc3ccccc3N)cc2)C1 (stereo not shown) [Example 7-17, (E)-N-(2-Amino-phenyl)-3-{4-[(3-diethylamino-pyrrolidin-1-yl)-(4-fluoro-phenylcarbamoyl)-methyl]-phenyl}-acrylamide]	0.7	0.7	1.0	163	164
CCN(CCO)C1CCN(C(C(=O)Nc2ccc(Br)cc2)c2ccc(/C=C/C(=O)Nc3ccccc3N)cc2)C1 (stereo not shown) [Example 7-29, (E)-N-(2-Amino-phenyl)-3-[4-((4-bromo-phenylcarbamoyl)-{3-[ethyl-(2-hydroxy-ethyl)-amino]-pyrrolidin-1-yl}-methyl)-phenyl]-acrylamide]		1.2	1.4	293	144
Nc1ccccc1NC(=O)/C=C/c1ccc(C(C(=O)Nc2ccc(Br)cc2)N2CCC(N3CCCCC3)C2)cc1 (stereo not shown) [Example 7-30, (E)-N-(2-Amino-phenyl)-3-{4-[(4-bromo-phenylcarbamoyl)-(3-piperidin-1-yl-pyrrolidin-1-yl)-methyl]-phenyl}-acrylamide]	0.7	1.2	0.1	338	111
CCN(CC)C1CCN(C(C(=O)Nc2ccc(Cl)cc2)c2ccc(/C=C/C(=O)Nc3ccccc3N)cc2)C1 (stereo not shown) [Example 7]	0.4	0.8	1.2	187	163

— US7999000B2, “N-(2-amino-phenyl)-acrylamides” (Hoffmann-La Roche Inc., priority 2008, dated 2011)
